# Measured values from PubChem BioAssay AID2060620 (Molecular Pharmacology Branch, DTP, NCI, 2025).
# System: 328373-195-R-J1-PDC complex spheroids, viability % test/control
# Assay: Anticancer human tumor 328373-195-R-J1-PDC patient-derived head and neck squamous carcinoma cell line growth inhibition [CLK]
# Details: for IC50: curve of first compound; for viability, T/C: stronger effect = lower value
# Outline: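 Patient-derived tumor cells grown as complex spheroids with HUVEC endothelial cells and mesenchymal stem cells, treated with drug combinations. Concentrations descend in half-log steps from near clinical Cmax, or from 10 microM if Cmax unknown.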
# [1] = second compound 0.0316 µM, first compound 0.00949 µM
# [2] = second compound 0.0316 µM, first compound 0.03 µM
# [3] = second compound 0.0316 µM, first compound 0.0949 µM
# [4] = second compound 0.0316 µM, first compound 0.3 µM
# [5] = second compound 0.1 µM, first compound 0.00949 µM
# [6] = second compound 0.1 µM, first compound 0.03 µM
# [7] = second compound 0.1 µM, first compound 0.0949 µM
# [8] = second compound 0.1 µM, first compound 0.3 µM
# [9] = second compound 0.316 µM, first compound 0.00949 µM
# [10] = second compound 0.316 µM, first compound 0.03 µM
# [11] = second compound 0.316 µM, first compound 0.0949 µM
# [12] = second compound 0.316 µM, first compound 0.3 µM
# [13] = second compound 1 µM, first compound 0.00949 µM
# [14] = second compound 1 µM, first compound 0.03 µM
# [15] = second compound 1 µM, first compound 0.0949 µM
# [16] = second compound 1 µM, first compound 0.3 µM
# [17] = second compound 3.16 µM, first compound 0.00949 µM
# [18] = second compound 3.16 µM, first compound 0.03 µM
# [19] = second compound 3.16 µM, first compound 0.0949 µM
# [20] = second compound 3.16 µM, first compound 0.3 µM
# [21] = second compound 10 µM, first compound 0.00949 µM
# [22] = second compound 10 µM, first compound 0.03 µM
# [23] = second compound 10 µM, first compound 0.0949 µM
# [24] = second compound 10 µM, first compound 0.3 µM
# [25] = second compound 0.0316 µM, first compound 0.0316 µM
# [26] = second compound 0.0316 µM, first compound 0.1 µM
# [27] = second compound 0.0316 µM, first compound 0.316 µM
# [28] = second compound 0.0316 µM, first compound 1 µM
# [29] = second compound 0.0316 µM, first compound 3.16 µM
# [30] = second compound 0.0316 µM, first compound 10 µM
# [31] = second compound 0.1 µM, first compound 0.0316 µM
# [32] = second compound 0.1 µM, first compound 0.1 µM
# [33] = second compound 0.1 µM, first compound 0.316 µM
# [34] = second compound 0.1 µM, first compound 1 µM
# [35] = second compound 0.1 µM, first compound 3.16 µM
# [36] = second compound 0.1 µM, first compound 10 µM
# [37] = second compound 0.316 µM, first compound 0.0316 µM
# [38] = second compound 0.316 µM, first compound 0.1 µM
# [39] = second compound 0.316 µM, first compound 0.316 µM
# [40] = second compound 0.316 µM, first compound 1 µM
# [41] = second compound 0.316 µM, first compound 3.16 µM
# [42] = second compound 0.316 µM, first compound 10 µM
# [43] = second compound 1 µM, first compound 0.0316 µM
# [44] = second compound 1 µM, first compound 0.1 µM
# [45] = second compound 1 µM, first compound 0.316 µM
# [46] = second compound 1 µM, first compound 1 µM
# [47] = second compound 1 µM, first compound 3.16 µM
# [48] = second compound 1 µM, first compound 10 µM
# [49] = second compound 3.16 µM, first compound 0.0316 µM
# [50] = second compound 3.16 µM, first compound 0.1 µM
# [51] = second compound 3.16 µM, first compound 0.316 µM
# [52] = second compound 3.16 µM, first compound 1 µM
# [53] = second compound 3.16 µM, first compound 3.16 µM
# [54] = second compound 3.16 µM, first compound 10 µM
# [55] = second compound 10 µM, first compound 0.0316 µM
# [56] = second compound 10 µM, first compound 0.1 µM
# [57] = second compound 10 µM, first compound 0.316 µM
# [58] = second compound 10 µM, first compound 1 µM
# [59] = second compound 10 µM, first compound 3.16 µM
# [60] = second compound 10 µM, first compound 10 µM
# 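Further: spheroids exposed to the agents for 7 days.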
structure (smiles),measurement,setting,value
C=CC(=O)Nc1cc(Nc2nccc(-c3cn(C)c4ccccc34)n2)c(OC)cc1N(C)CCN(C)C + CN1CCN(c2cc(C(=O)Nc3cc4cc(-c5cnn(C)c5)ccc4cn3)ccn2)CC1,IC50,second compound 0.0316 µM,> 300 nM
same,IC50,second compound 0.1 µM,> 300 nM
same,IC50,second compound 0.316 µM,< 0.949 nM
same,IC50,second compound 1 µM,< 0.949 nM
same,IC50,second compound 3.16 µM,< 0.949 nM
same,IC50,second compound 10 µM,< 0.949 nM
same,"viability, T/C","second compound 0.0316 µM, first compound 0.000949 µM",100%
same,"viability, T/C","second compound 0.0316 µM, first compound 0.003 µM",112%
same,"viability, T/C",[1],99.2%
same,"viability, T/C",[2],96.9%
same,"viability, T/C",[3],98.7%
same,"viability, T/C",[4],93.6%
same,"viability, T/C","second compound 0.1 µM, first compound 0.000949 µM",83.8%
same,"viability, T/C","second compound 0.1 µM, first compound 0.003 µM",88.1%
same,"viability, T/C",[5],87.4%
same,"viability, T/C",[6],90.7%
same,"viability, T/C",[7],96%
same,"viability, T/C",[8],69%
same,"viability, T/C","second compound 0.316 µM, first compound 0.000949 µM",30.1%
same,"viability, T/C","second compound 0.316 µM, first compound 0.003 µM",35%
same,"viability, T/C",[9],30.1%
same,"viability, T/C",[10],26.3%
same,"viability, T/C",[11],26.6%
same,"viability, T/C",[12],18.1%
same,"viability, T/C","second compound 1 µM, first compound 0.000949 µM",0.15%
same,"viability, T/C","second compound 1 µM, first compound 0.003 µM",0.25%
same,"viability, T/C",[13],0.9%
same,"viability, T/C",[14],0.25%
same,"viability, T/C",[15],1.86%
same,"viability, T/C",[16],1.95%
same,"viability, T/C","second compound 3.16 µM, first compound 0.000949 µM",1.21%
same,"viability, T/C","second compound 3.16 µM, first compound 0.003 µM",0.16%
same,"viability, T/C",[17],0.17%
same,"viability, T/C",[18],0.15%
same,"viability, T/C",[19],4.52%
same,"viability, T/C",[20],2.34%
same,"viability, T/C","second compound 10 µM, first compound 0.000949 µM",0.17%
same,"viability, T/C","second compound 10 µM, first compound 0.003 µM",0.21%
same,"viability, T/C",[21],1.31%
same,"viability, T/C",[22],2.14%
same,"viability, T/C",[23],3.21%
same,"viability, T/C",[24],0.21%
CC1(C)CCC(CN2CCN(c3ccc(C(=O)NS(=O)(=O)c4ccc(NCC5CCOCC5)c([N+](=O)[O-])c4)c(Oc4cnc5[nH]ccc5c4)c3)CC2)=C(c2ccc(Cl)cc2)C1 + CN1CCN(c2cc(C(=O)Nc3cc4cc(-c5cnn(C)c5)ccc4cn3)ccn2)CC1,IC50,second compound 0.0316 µM,6500 nM
same,IC50,second compound 0.1 µM,> 10000 nM
same,IC50,second compound 0.316 µM,< 31.6 nM
same,IC50,second compound 1 µM,< 31.6 nM
same,IC50,second compound 3.16 µM,< 31.6 nM
same,IC50,second compound 10 µM,< 31.6 nM
same,"viability, T/C",[25],98.7%
same,"viability, T/C",[26],99.3%
same,"viability, T/C",[27],93.3%
same,"viability, T/C",[28],91.4%
same,"viability, T/C",[29],83.8%
same,"viability, T/C",[30],30.1%
same,"viability, T/C",[31],88.8%
same,"viability, T/C",[32],83.2%
same,"viability, T/C",[33],86.4%
same,"viability, T/C",[34],81.8%
same,"viability, T/C",[35],78.2%
same,"viability, T/C",[36],51.5%
same,"viability, T/C",[37],28%
same,"viability, T/C",[38],34.3%
same,"viability, T/C",[39],33.9%
same,"viability, T/C",[40],31.2%
same,"viability, T/C",[41],33%
same,"viability, T/C",[42],40.4%
same,"viability, T/C",[43],0.22%
same,"viability, T/C",[44],0.22%
same,"viability, T/C",[45],0.21%
same,"viability, T/C",[46],0.14%
same,"viability, T/C",[47],2.75%
same,"viability, T/C",[48],3.03%
same,"viability, T/C",[49],0.09%
same,"viability, T/C",[50],0.14%
same,"viability, T/C",[51],1.25%
same,"viability, T/C",[52],0.12%
same,"viability, T/C",[53],0.11%
same,"viability, T/C",[54],0.15%
same,"viability, T/C",[55],0.11%
same,"viability, T/C",[56],1.97%
same,"viability, T/C",[57],3.19%
same,"viability, T/C",[58],0.16%
same,"viability, T/C",[59],1.92%
same,"viability, T/C",[60],2.43%
NC(=O)C(=Cn1cnc(-c2cc(C(F)(F)F)cc(C(F)(F)F)c2)n1)c1cncnc1 + CN1CCN(c2cc(C(=O)Nc3cc4cc(-c5cnn(C)c5)ccc4cn3)ccn2)CC1,IC50,second compound 0.0316 µM,21.5 nM
same,IC50,second compound 0.1 µM,12.8 nM
same,IC50,second compound 0.316 µM,< 9.49 nM
same,IC50,second compound 1 µM,< 9.49 nM
same,IC50,second compound 3.16 µM,< 9.49 nM
same,IC50,second compound 10 µM,< 9.49 nM
same,"viability, T/C",[1],78.8%
same,"viability, T/C",[2],38.3%
same,"viability, T/C",[3],1.11%
same,"viability, T/C",[4],0.32%
same,"viability, T/C","second compound 0.0316 µM, first compound 0.949 µM",0.14%
same,"viability, T/C","second compound 0.0316 µM, first compound 3 µM",1.38%
same,"viability, T/C",[5],56.7%
same,"viability, T/C",[6],31.2%
same,"viability, T/C",[7],0.33%
same,"viability, T/C",[8],0.56%
same,"viability, T/C","second compound 0.1 µM, first compound 0.949 µM",0.08%
same,"viability, T/C","second compound 0.1 µM, first compound 3 µM",3.54%
same,"viability, T/C",[9],13.3%
same,"viability, T/C",[10],1.99%
same,"viability, T/C",[11],1.27%
same,"viability, T/C",[12],0.99%
same,"viability, T/C","second compound 0.316 µM, first compound 0.949 µM",0.07%
same,"viability, T/C","second compound 0.316 µM, first compound 3 µM",1.88%
same,"viability, T/C",[13],0.09%
same,"viability, T/C",[14],0.12%
same,"viability, T/C",[15],2.09%
same,"viability, T/C",[16],1.38%
same,"viability, T/C","second compound 1 µM, first compound 0.949 µM",2.09%
same,"viability, T/C","second compound 1 µM, first compound 3 µM",0.22%
same,"viability, T/C",[17],0.24%
same,"viability, T/C",[18],1.6%
same,"viability, T/C",[19],0.1%
same,"viability, T/C",[20],1.06%
same,"viability, T/C","second compound 3.16 µM, first compound 0.949 µM",0.12%
same,"viability, T/C","second compound 3.16 µM, first compound 3 µM",1.99%
same,"viability, T/C",[21],1.81%
same,"viability, T/C",[22],0.08%
same,"viability, T/C",[23],0.93%
same,"viability, T/C",[24],0.14%
same,"viability, T/C","second compound 10 µM, first compound 0.949 µM",1.29%
same,"viability, T/C","second compound 10 µM, first compound 3 µM",0.16%
Nc1ccccc1NC(=O)c1ccc(CNC(=O)OCc2cccnc2)cc1 + CN1CCN(c2cc(C(=O)Nc3cc4cc(-c5cnn(C)c5)ccc4cn3)ccn2)CC1,IC50,second compound 0.0316 µM,706 nM
same,IC50,second compound 0.1 µM,641 nM
same,IC50,second compound 0.316 µM,< 31.6 nM
same,IC50,second compound 1 µM,< 31.6 nM
same,IC50,second compound 3.16 µM,< 31.6 nM
same,IC50,second compound 10 µM,< 31.6 nM
same,"viability, T/C",[25],90.1%
same,"viability, T/C",[26],79.9%
same,"viability, T/C",[27],63.5%
same,"viability, T/C",[28],38.3%
same,"viability, T/C",[29],34.1%
same,"viability, T/C",[30],11.1%
same,"viability, T/C",[31],74.5%
same,"viability, T/C",[32],80%
same,"viability, T/C",[33],55.4%
same,"viability, T/C",[34],40.8%
same,"viability, T/C",[35],30%
same,"viability, T/C",[36],7.09%
same,"viability, T/C",[37],26.5%
same,"viability, T/C",[38],32.9%
same,"viability, T/C",[39],22.5%
same,"viability, T/C",[40],16.6%
same,"viability, T/C",[41],8.58%
same,"viability, T/C",[42],1.38%
same,"viability, T/C",[43],0.23%
same,"viability, T/C",[44],1.09%
same,"viability, T/C",[45],0.16%
same,"viability, T/C",[46],0.08%
same,"viability, T/C",[47],1.1%
same,"viability, T/C",[48],2.52%
same,"viability, T/C",[49],0.07%
same,"viability, T/C",[50],0.75%
same,"viability, T/C",[51],1.64%
same,"viability, T/C",[52],0.06%
same,"viability, T/C",[53],0.07%
same,"viability, T/C",[54],0.09%
same,"viability, T/C",[55],0.04%
same,"viability, T/C",[56],1.05%
same,"viability, T/C",[57],0.15%
same,"viability, T/C",[58],0.1%
same,"viability, T/C",[59],2.24%
same,"viability, T/C",[60],0.16%
